Experimental data taken from US10202418B2, “Hydroxy-ethylene derivatives for the treatment of arthrosis” (MERCK PATENT GMBH, priority 2013, dated 2019).

molecular target: recombinant human renin (Homo sapiens (Human), UniProt P00797); assay: In-vitro fluorescence assay for identification of renin-inhibitory activity; type: biochemical; conditions: renin 10 nM, pH 7.2
Procedure: In order to identify modulators of renin activity, a continuous enzymatic test was carried out with a synthetic peptide which carries a fluorescent group Edans (=(5-(aminoethyl)aminonaphthalenesulfonate) which is quenched by energy transfer from a Dabcyl (4′-dimethylaminoazobenzene-4-carboxylate) group on the same molecule, in Greiner 384-well microtitre plates. Cleavage of the peptidic substrate by renin causes an increase in the fluorescence intensity. In order to determine the efficacy of substances, the time-dependent increase in the fluorescence intensity in the presence of the substance was compared with the time-dependent increase in fluorescence in the absence of substances. The reference substance used was renin inhibitor 2 (Z-Arg-Arg-Pro-Phe-His-Sta-Ile-His N-Boc-Lys methyl ester Z) (Sigma-Aldrich). The substrate used was renin FRET substrate I (DABCYL-g-Abu-Ile-His-Pro-Phe-His-Leu-Val-Ile-His-Thr EDANS) (Anaspec, Fremont Calif.). The enzyme employed was recombinant human renin (Proteos, Kalamazoo, Mich.) in a final concentration of 10 nM. The test was carried out in 50 mM Mops buffer, 1.5% (v/v) of DMSO, 0.1% (w/v) of Igepal®, pH 7.2, 0.5% (w/v) of BSA. 2 μl of each substance solution with serially diluted substance concentration were added to in each case 4 μl of renin solution and incubated at room temperature for 15 min. The reaction was started by addition of 4 μl of substrate solution (final concentration 5 μM). After carrying out a starting-point fluorescence measurement (excitation wavelength 340 nm/emission wavelength 495 nm) using an Envision multilabel reader (Perkin Elmer), the reaction was incubated at 37° C. for 60 min. The amount of peptide fragment cleaved off during the reaction time was subsequently measured by determination of the increase in the fluorescence intensity at 495 nm (excitation wavelength 340 nm).

recombinant human renin, sequence (P00797 67-406): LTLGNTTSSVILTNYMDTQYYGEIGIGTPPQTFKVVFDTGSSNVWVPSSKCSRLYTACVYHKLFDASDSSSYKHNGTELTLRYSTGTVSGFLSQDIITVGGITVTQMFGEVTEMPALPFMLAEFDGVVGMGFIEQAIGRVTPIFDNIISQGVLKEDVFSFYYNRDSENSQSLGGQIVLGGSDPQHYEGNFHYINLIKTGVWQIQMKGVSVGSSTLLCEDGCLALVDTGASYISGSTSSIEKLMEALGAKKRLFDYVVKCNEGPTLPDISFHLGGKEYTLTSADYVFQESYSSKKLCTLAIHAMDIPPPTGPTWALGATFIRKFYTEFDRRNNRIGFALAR

IC50, > 30 µM:
CC(C)[C@H](NC(=O)Cc1cccc2ccccc12)C(=O)N[C@@H](Cc1ccccc1)[C@@H](O)CCC(=O)NCCc1ccccc1 [Compound A12, (4S,5S)-4-Hydroxy-5-[(S)-3-methyl-2-(2-naphthalen-1-ylacetylamino)-butyrylamino]-6-phenylhexanoic acid phenethylamide]
Cc1ccc(OCC(=O)N[C@H](C(=O)N[C@@H](Cc2ccccc2)[C@@H](O)CCC(=O)NCCc2ccccc2)C(C)C)cc1C [Compound A10, (4S,5S)-5-{(S)-2-[2-(3,4-Dimethylphenoxy)acetylamino]-3-methylbutyryl-amino}-4-hydroxy-6-phenylhexanoic acid phenethylamide]
COc1ccc(CC(=O)N[C@H](C(=O)N[C@@H](Cc2ccccc2)[C@@H](O)CCC(=O)NCCc2ccccc2)C(C)C)cc1OC [Compound A5, (4S,5S)-5-{(S)-2-[2-(3,4-Dimethoxyphenyl)acetylamino]-3-methylbutyryl-amino}-4-hydroxy-6-phenylhexanoic acid phenethylamide]
CC(C)[C@H](NC(=O)Cc1cccc(Oc2ccccc2)c1)C(=O)N[C@@H](Cc1ccccc1)[C@@H](O)CCC(=O)N1CCc2ccccc21 [Compound A16, (S)-N-[(1S,2S)-1-Benzyl-5-(2,3-dihydroindol-1-yl)-2-hydroxy-5-oxopentyl]-3-methyl-2-[2-(3-phenoxyphenyl)acetylamino]butyramide]
COc1ccc(CC(=O)N[C@H](C(=O)N[C@@H](Cc2ccccc2)[C@@H](O)CCC(=O)NCCc2ccccc2)C(C)C)cc1 [Compound A7, (4S,5S)-4-Hydroxy-5-{(S)-2-[2-(4-methoxyphenyl)acetylamino]-3-methyl-butyrylamino}-6-phenylhexanoic acid phenethylamide]
CCOc1cccc(CC(=O)N[C@H](C(=O)N[C@@H](Cc2ccccc2)[C@@H](O)CCC(=O)NCCc2ccccc2)C(C)C)c1 [Compound A19, (4S,5S)-5-{(S)-2-[2-(3-Ethoxyphenyl)acetylamino]-3-methylbutyrylamino}-4-hydroxy-6-phenylhexanoic acid phenethylamide]
Cc1cccc(C)c1NC(=O)CC[C@H](O)[C@H](Cc1ccccc1)NC(=O)[C@@H](NC(=O)Cc1cccc(Oc2ccccc2)c1)C(C)C [Compound A14, (4S,5S)-4-Hydroxy-5-{(S)-3-methyl-2-[2-(3-phenoxyphenyl)acetylamino]-butyrylamino}-6-phenylhexanoic acid (2,6-dimethylphenyl)amide]
CC(C)[C@H](NC(=O)CCCc1ccccc1)C(=O)N[C@@H](Cc1ccccc1)[C@@H](O)CCC(=O)NCCc1ccccc1 [Compound A20, (4S,5S)-4-Hydroxy-5-[(S)-3-methyl-2-(4-phenylbutyrylamino)butyryl-amino]-6-phenylhexanoic acid phenethylamide]
CC(C)[C@H](NC(=O)Cc1cccc(Oc2ccccc2)c1)C(=O)N[C@@H](Cc1ccccc1)[C@@H](O)CCC(=O)NCc1ccccc1 [Compound A15, (4S,5S)-4-Hydroxy-5-{(S)-3-methyl-2-[2-(3-phenoxyphenyl)acetylamino]-butyrylamino}-6-phenylhexanoic acid benzylamide]
CC(C)[C@H](NC(=O)Cc1cccc(OC(F)(F)F)c1)C(=O)N[C@@H](Cc1ccccc1)[C@@H](O)CCC(=O)NCCc1ccccc1 [Compound A3, (4S,5S)-4-Hydroxy-5-{(S)-3-methyl-2-[2-(3-trifluoromethoxyphenyl)-acetylamino]butyrylamino}-6-phenylhexanoic acid phenethylamide]
COc1ccccc1CC(=O)N[C@H](C(=O)N[C@@H](Cc1ccccc1)[C@@H](O)CCC(=O)NCCc1ccccc1)C(C)C [Compound A9, (4S,5S)-4-Hydroxy-5-{(S)-2-[2-(2-methoxyphenyl)acetylamino]-3-methyl-butyrylamino}-6-phenylhexanoic acid phenethylamide]
